Data: patent US20230286983A1 (4E Therapeutics, Inc., priority 2020, published 2023)
Where “and” joins values, the source holds several entries; their conditions need not be identical. Equal values may be shown once. Read-outs that look alike come from different tables or passages of the source.

Key:
[1] = Pharmacokinetic study, 4ET-03-009 at 10 mg/kg oral; assay type: in vivo, CD-1 male mice; conditions: for AUCinf/D / Cmax/D: dose normalized; for concentration at 24 hours: read-out: Clast
Description: (§1) Compound 4ET-03-009 was dissolved in a 10% dimethylacetamide (DMA)/[…] solvent. CD-1 male mice were orally dosed with 10 mg/kg of compound 4ET-03-009 in 20 mL/kg of liquid. Plasma was collected at indicated timepoints and plasma concentration of compound 4ET-03-009 was measured using liquid chromatography-mass spectrometry/mass spectrometry (LC-MS/MS). Results are presented in FIG. 1 and Tables 3, 4, and 5.

[2] = Pharmacokinetic study, 4ET-03-009 at 20 mg/kg oral; assay type: in vivo, CD-1 male mice
Description: as §1, with “CD-1 male mice were orally dosed with 10 mg/kg of compound 4ET-03-009 in 20 mL/kg of liquid.” left out
Compound 4ET-03-009 was dissolved in a 10% dimethylacetamide (DMA)/30% polyethylene glycol (PEG) 300/40% propylene glycol (PG)/20% water solvent. Dosing and assay were performed as described in Biological Example 2. Results are presented in FIG. 3 and Tables 7, 8, and 9, below.

[3] = male, CD-1, mouse, plasma, po, 10 mg/kg, Mean (n = 3)
[4] = male, CD-1, mouse, plasma, po, 10 mg/kg, individual animals

## Cc1cc(Nc2cc(NC(=O)C3CC3)ncn2)c(=O)n2c1C(=O)NC21CCOCC1 [Compound 4ET-03-009, N-(6-((8-Methyl-1,5-dioxo-1,2′,3′,5,5′,6′-hexahydro-2H-spiro[imidazo[1,5-a]pyridine-3,4′-pyran]-6-yl)amino)pyrimidin-4-yl)cyclopropanecarboxamide]
[1]
  abnormal clinical symptoms during the study: No abnormal clinical symptoms were observed
[1]; 0.083 hours
  Plasma Conc. (per mouse n = 3): 85.3 ng/mL and 106 ng/mL
[1]; 0.25 hours
  Plasma Conc. (per mouse n = 3): 147 ng/mL and 161 ng/mL
[1]; 0.5 hours
  Plasma Conc. (per mouse n = 3): 270 ng/mL and 205 ng/mL
[1]; 1 hours
  Plasma Conc. (per mouse n = 3): 318 ng/mL and 233 ng/mL
[1]; 2 hours
  Plasma Conc. (per mouse n = 3): 271 ng/mL and 216 ng/mL
[1]; 4 hours
  Plasma Conc. (per mouse n = 3): 169 ng/mL and 124 ng/mL
[1]; 6 hours
  Plasma Conc. (per mouse n = 3): 80.2 ng/mL and 70.6 ng/mL
[1]; 8 hours
  Plasma Conc. (per mouse n = 3): 62.9 ng/mL and 53.9 ng/mL
[1]; 24 hours
  Plasma Conc. (per mouse n = 3): 2.28 ng/mL and 1.84 ng/mL
[1]; Mean (n = 3)
  Tlast: 24.0 h
  t1/2: 3.46 h
  AUCinf/D: 162 kg·h/kL
  Cmax/D: 29.4 kg/kL
[1]; individual animals
  AUC0-8 hours: 1349 ng·h/mL and 1066 ng·h/mL
  AUCinf: 1882 ng·h/mL and 1520 ng·h/mL
  AUClast: 1870 ng·h/mL and 1511 ng·h/mL
  Clast: 2.28 ng/mL and 1.84 ng/mL
  Cmax: 318 ng/mL and 233 ng/mL
  MRTinf: 4.64 h and 4.74 h
  Tlast: 24.0 h
  t1/2: 3.44 h and 3.37 h
  AUCinf/D: 147 kg·h/kL and 188 kg·h/kL and 152 kg·h/kL
  Cmax/D: 33.1 kg/kL and 31.8 kg/kL and 23.3 kg/kL
[1]; male, CD-1, mouse, plasma, individual animals
  Tmax: 1 h
[1]; male, CD-1, mouse, plasma, oral, 10 mg/kg, 0.083 hours, mean n = 3, read-out: Plasma Conc. Mean
  concentration at 0.083 h: 90.4 ng/mL
[1]; male, CD-1, mouse, plasma, oral, 10 mg/kg, 0.083 hours, read-out: Plasma Conc. (per mouse n = 3)
  concentration at 0.083 h: 79.8 ng/mL
[1]; male, CD-1, mouse, plasma, oral, 10 mg/kg, 0.25 hours, mean n = 3, read-out: Plasma Conc. Mean
  concentration at 0.25 h: 138 ng/mL
[1]; male, CD-1, mouse, plasma, oral, 10 mg/kg, 0.25 hours, read-out: Plasma Conc. (per mouse n = 3)
  concentration at 0.25 h: 106 ng/mL
[1]; male, CD-1, mouse, plasma, oral, 10 mg/kg, 0.5 hours, mean n = 3, read-out: Plasma Conc. Mean
  concentration at 0.5 hours: 226 ng/mL
[1]; male, CD-1, mouse, plasma, oral, 10 mg/kg, 0.5 hours, read-out: Plasma Conc. (per mouse n = 3)
  concentration at 0.5 h: 202 ng/mL
[1]; male, CD-1, mouse, plasma, oral, 10 mg/kg, 1 hours, mean n = 3, read-out: Plasma Conc. Mean
  concentration at 1 h: 294 ng/mL
[1]; male, CD-1, mouse, plasma, oral, 10 mg/kg, 1 hours, read-out: Plasma Conc. (per mouse n = 3)
  concentration at 1 h: 331 ng/mL
[1]; male, CD-1, mouse, plasma, oral, 10 mg/kg, 2 hours, mean n = 3, read-out: Plasma Conc. Mean
  concentration at 2 h: 255 ng/mL
[1]; male, CD-1, mouse, plasma, oral, 10 mg/kg, 2 hours, read-out: Plasma Conc. (per mouse n = 3)
  concentration at 2 h: 227 ng/mL
[1]; male, CD-1, mouse, plasma, oral, 10 mg/kg, 4 hours, mean n = 3, read-out: Plasma Conc. Mean
  concentration at 4 h: 132 ng/mL
[1]; male, CD-1, mouse, plasma, oral, 10 mg/kg, 4 hours, read-out: Plasma Conc. (per mouse n = 3)
  concentration at 4 h: 104 ng/mL
[1]; male, CD-1, mouse, plasma, oral, 10 mg/kg, 6 hours, mean n = 3, read-out: Plasma Conc. Mean
  concentration at 6 h: 66.7 ng/mL
[1]; male, CD-1, mouse, plasma, oral, 10 mg/kg, 6 hours, read-out: Plasma Conc. (per mouse n = 3)
  concentration at 6 h: 49.3 ng/mL
[1]; male, CD-1, mouse, plasma, oral, 10 mg/kg, 8 hours, mean n = 3, read-out: Plasma Conc. Mean
  concentration at 8 h: 52.5 ng/mL
[1]; male, CD-1, mouse, plasma, oral, 10 mg/kg, 8 hours, read-out: Plasma Conc. (per mouse n = 3)
  concentration at 8 h: 40.6 ng/mL
[1]; male, CD-1, mouse, plasma, oral, 10 mg/kg, 24 hours, mean n = 3, read-out: Plasma Conc. Mean
  concentration at 24 h: 1.92 ng/mL
[1]; male, CD-1, mouse, plasma, oral, 10 mg/kg, 24 hours, read-out: Plasma Conc. (per mouse n = 3)
  concentration at 24 h: 1.64 ng/mL
[1]; male, CD-1, mouse, plasma, oral, 10 mg/kg, Mean (n = 3)
  concentration at 24 hours: 1.92 ng/mL
[1]; male, CD-1, mouse, plasma, oral, 10 mg/kg, individual animals
  concentration at 24 hours: 1.64 ng/mL
[1]; [3]
  AUC(0-inf): 1620 ng·h/mL
  MRT inf: 4.5 h
  half-life: 3.5 h
[1]; male, CD-1, mouse, plasma, po, 10 mg/kg, Mean (n = 3), read-out: AUC0-8 hours
  AUC(0-t): 1180 ng·h/mL
[1]; male, CD-1, mouse, plasma, po, 10 mg/kg, Mean (n = 3), read-out: AUClast
  AUC(0-t): 1610 ng·h/mL
[1]; male, CD-1, mouse, plasma, po, 10 mg/kg, Mean (n = 3), read-out: Cmax
  Cmax: 294 ng/mL
[1]; male, CD-1, mouse, plasma, po, 10 mg/kg, for the study
  AUC(0-inf): 1620 ng·h/mL
[1]; male, CD-1, mouse, plasma, po, 10 mg/kg, for the study, read-out: Cmax
  Cmax: 716 nM
[1]; [4]
  AUC(0-inf): 1460 ng·h/mL
  MRT inf: 4.12 h
  half-life: 3.58 h
[1]; male, CD-1, mouse, plasma, po, 10 mg/kg, individual animals, read-out: AUC0-8 hours
  AUC(0-t): 1120 ng·h/mL
[1]; male, CD-1, mouse, plasma, po, 10 mg/kg, individual animals, read-out: AUClast
  AUC(0-t): 1460 ng·h/mL
[1]; male, CD-1, mouse, plasma, po, 10 mg/kg, individual animals, read-out: Cmax
  Cmax: 331 ng/mL
[2]
  abnormal clinical symptoms during the study: No abnormal clinical symptoms were observed
[2]; 0.083 hours
  Plasma Conc. (per mouse n = 3): 384 ng/mL and 304 ng/mL
[2]; 0.25 hours
  Plasma Conc. (per mouse n = 3): 529 ng/mL and 396 ng/mL
[2]; 0.5 hours
  Plasma Conc. (per mouse n = 3): 607 ng/mL and 497 ng/mL
[2]; 1 hours
  Plasma Conc. (per mouse n = 3): 561 ng/mL and 448 ng/mL
